Measured values: PMC12340956, “Tranylcypromine-Based LSD1 Inhibitors as Useful Agents to Reduce Viability of” (ACS Infectious Diseases, 2025)
Where two headings read alike, the source gives them in different places.

How the values were obtained:
[1] = biological target: T1, human LSD1-CoREST complex (Homo sapiens, UniProt O60341); test: HRP-coupled LSD1 inhibition assay; format: biochemical; settings: 10 min preincubation
T1 construct: made in house
In short: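 Human LSD1-CoREST inhibition measured in an HRP-coupled format, with the reaction started by adding substrate to the preformed enzyme–inhibitor mixture. Resorufin fluorescence read at excitation 530–570 nm and emission 580–590 nm.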

[2] = biological target: T1, human LSD1-CoREST complex; test: ThermoFAD thermal stability assay; format: binding
In short: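 Thermal shift (ΔTm) of human LSD1-CoREST measured by ThermoFAD following established protocols. For the parallel inhibition read-out, 0.4 μM LSD1-CoREST was preincubated with inhibitor 10 min at 25 °C in 5% DMSO, then substrate added and resorufin fluorescence (ex 530–570, em 580–590 nm) recorded.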

[3] = biological target: T1, human LSD1-CoREST complex; test: Spectrophotometric analysis of flavin cofactor bleaching; format: biochemical
[4] = biological target: T1, human LSD1-CoREST complex; set-up: method as in footnote c (number not given); settings: positive control; ref footnote c (number not given); read-out: IC50 (hLSD1 direct inhibition); cited from earlier work
[5] = test system: S. mansoni juvenile forms; test: Speed-of-action assay in juvenile forms; format: cell-based, Schistosoma mansoni; settings: for IC50: Schistosoma mansoni, read-out: IC50 (speed of action, juvenile forms); for Percentage of effect: juvenile forms
Text: (§1) To better characterize a selection of our LSD1i in vitro, we assessed the onset of their action, defined as the time required for an observable antischistosomal effect. […] For detailed percentages of activity at each time point, refer to the Supporting Information (Tables S2 and S3 in Supporting Information).

NTS = test: Speed-of-action assay in NTS; format: cell-based, Schistosoma mansoni; settings: for Percentage of effect: NTS; for IC50: Schistosoma mansoni, read-out: IC50 (speed of action, NTS)
Text: as §1

juvenile and adult worms = test system: juvenile and adult worms; set-up: method as in earlier work of the authors (number not given); settings: ref earlier work of the authors (number not given); cited from earlier work
[6] = MTT cytotoxicity in RPE cells; format: cell-based; settings: human, retinal pigment epithelial (RPE) cells
Protocol: (§2) The MTT method was used to evaluate cell viability after 72 h of treatment.
(§3) Human commercial lung diploid fibroblasts (MRC-5), and diploid retinal epithelium cells (RPE) were obtained from the American Type Culture Collection (ATCC) and kindly provided by Dr Francesca Degrassi (CNR IBPM) and maintained in minimal essential medium or DMEM-F12 medium supplemented with fetal calf serum, antibiotics, and nonessential amino acids. Cells were grown at 37 °C, in a humidified atmosphere, with 5% CO2. For experiments, cells were seeded in 200 μL of complete in each well of a 96-well microtiter plate. After 24 h, compounds were added at 5, 10, 25, and 50 μM for 72 h in sextuplicate. MTT was added (0.5 mg/mL), incubated for 4 h at 37 °C, and dissolved in 200 μL of isopropyl alcohol. Absorbance was measured at 570 nm (ELISA reader, DASIT), and cell viability was calculated as viability=(ODoftreatedcells/ODofcontrolcells)×100

adult worms = test: Adult worm viability phenotypic assay, 72 h; settings: Schistosoma mansoni, read-out: IC50 (adult worm viability)
[7] = MTT cytotoxicity in MRC-5 cells; format: cell-based; settings: human, MRC-5 lung diploid fibroblast cells
Protocol: as §2, §3

[8] = test system: newly transformed schistosomula (NTS); test: NTS viability phenotypic screening, 72 h
[9] = 5 μM, read-out: percentage of viability, 72 h
[10] = 10 μM, read-out: percentage of viability, 72 h
[11] = 25 μM, read-out: percentage of viability, 72 h
[12] = 50 μM, read-out: percentage of viability, 72 h
[13] = read-out: IC50 (cell viability)

Q: With `CC#Cc1ccc(C(=O)Nc2cccc(C3CC3N)c2)cc1.Cl` (centres unmarked) [Compound 21, N-(3-(2-Aminocyclopropyl)phenyl)-4-(prop-1-yn-1-yl)benzamide Hydrochloride] as the molecule, how does the “IC50 (hLSD1 direct inhibition)” value [1] read?
A: inactive

Q: What about the IC50 ([1]; read-out: IC50 (hLSD1 direct inhibition)) of the same molecule?
A: > 100 µM

Q: What about the “thermal shift compared to the control” value [2] of the same molecule?
A: no thermal shift

Q: What about the ΔTm ([2]; LSD1-CoREST thermal stability) of the same molecule?
A: 0 °C

Q: What about the “bleaching of the flavin cofactor” value [3] of the same molecule?
A: no bleaching

Q: For `C#Cc1ccc(C(=O)Nc2ccc(C3CC3N)cc2)cc1` (centres unmarked) [MC3935, reference compound], which IC50 [4] is on record?
A: 0.52 µM

Q: What about the IC50 ([5]; 4 h) of the same molecule?
A: > 20 µM

Q: And the IC50 ([5]; 24 h)?
A: > 20 µM

Q: And the IC50 ([5]; 48 h)?
A: > 20 µM

Q: What about the IC50 ([5]; 72 h) of the same molecule?
A: 17.7 µM

Q: And the Percentage of effect ([5]; 4 h, 1 μM)?
A: 16.67%

Q: What about the Percentage of effect ([5]; 4 h, 10 μM) of the same molecule?
A: 23.33%

Q: And the Percentage of effect ([5]; 4 h, 20 μM)?
A: 41.82%

Q: What about the Percentage of effect ([5]; 24 h, 1 μM) of the same molecule?
A: 17.24%

Q: What about the Percentage of effect ([5]; 24 h, 10 μM) of the same molecule?
A: 31.03%

Q: What about the Percentage of effect ([5]; 24 h, 20 μM) of the same molecule?
A: 38.46%

Q: And the Percentage of effect ([5]; 48 h, 1 μM)?
A: 26.92%

Q: And the Percentage of effect ([5]; 48 h, 10 μM)?
A: 32.69%

Q: What about the Percentage of effect ([5]; 48 h, 20 μM) of the same molecule?
A: 39.58%

Q: And the Percentage of effect ([5]; 72 h, 1 μM)?
A: 31.48%

Q: What about the Percentage of effect ([5]; 72 h, 10 μM) of the same molecule?
A: 39%

Q: What about the Percentage of effect ([5]; 72 h, 20 μM) of the same molecule?
A: 56.25%

Q: What about the Percentage of effect (NTS; 4 h, 10 μM) of the same molecule?
A: 21.15%

Q: What about the Percentage of effect (NTS; 4 h, 20 μM) of the same molecule?
A: 23.08%

Q: And the Percentage of effect (NTS; 24 h, 10 μM)?
A: 41.07%

Q: And the Percentage of effect (NTS; 24 h, 20 μM)?
A: 41.07%

Q: And the Percentage of effect (NTS; 48 h, 10 μM)?
A: 34.69%

Q: And the Percentage of effect (NTS; 48 h, 20 μM)?
A: 57.14%

Q: And the Percentage of effect (NTS; 72 h, 10 μM)?
A: 51.02%

Q: What about the Percentage of effect (NTS; 72 h, 20 μM) of the same molecule?
A: 59.18%

Q: What about the IC50 (NTS; 4 h) of the same molecule?
A: > 20 µM

Q: And the IC50 (NTS; 24 h)?
A: > 20 µM

Q: What about the IC50 (NTS; 48 h) of the same molecule?
A: 17.6 µM

Q: What about the IC50 (NTS; 72 h) of the same molecule?
A: 11.5 µM

Q: What about the “time to parasite death” value (juvenile and adult worms) of the same molecule?
A: ≤ 96 h

Q: What about the viability at 72 h, 5 µM [6, 9] of the same molecule?
A: 84 ± 18%

Q: What about the viability at 72 h, 10 µM [6, 10] of the same molecule?
A: 87 ± 24%

Q: And the viability at 72 h, 25 µM [6, 11]?
A: 82 ± 11%

Q: What about the viability at 72 h, 50 µM [6, 12] of the same molecule?
A: 100 ± 33%

Q: And the IC50 at 72 h [6, 13]?
A: > 100 µM

Q: What about the IC50 (adult worms) of the same molecule?
A: > 10 µM

Q: And the viability at 72 h, 5 µM [7, 9]?
A: 94 ± 10%

Q: What about the viability at 72 h, 10 µM [7, 10] of the same molecule?
A: 97 ± 9%

Q: What about the viability at 72 h, 25 µM [7, 11] of the same molecule?
A: 93 ± 17%

Q: And the viability at 72 h, 50 µM [7, 12]?
A: 94 ± 10%

Q: What about the IC50 at 72 h [7, 13] of the same molecule?
A: > 100 µM

Q: What about the “Percentage of reduction of NTS viability, 72 h” value (shortened to “Percentage of reduction … 72 h”) ([8]; 1 μM) of the same molecule?
A: 33.3 ± 0.0%

Q: And the “Percentage of reduction … 72 h” value ([8]; 10 μM)?
A: 45.5 ± 4.3%

Q: What about the “Percentage of reduction … 72 h” value ([8]; 20 μM) of the same molecule?
A: 100 ± 0.0%

Q: What about the IC50 ([8]; Schistosoma mansoni, read-out: IC50 (NTS viability)) of the same molecule?
A: 1.95 µM
